Source: patent US10155802B2, “Locally-active anticoagulants and anti-inflammatory agents” (priority 2011, dated 2018)
Read-outs that look alike come from different tables or passages of the source. No end group written: not given here.

Experiments:
[1] = test system: FeCl3-induced venous thrombosis (vena cava); assay: FeCl3-induced venous model of thrombosis in rats (thrombus weight); type: in vivo; details: rat, single-bolus injection via tail vein
Procedure: Male Sprague-Dawley rats (250-310 g; Charles River Laboratories, St-Constant, QC, Canada) were acclimated for at least 3 days prior to the start of the study. Animals were housed in microisolator cages and were kept on a 12-hr light/dark cycle with constant temperature and humidity. Food and water were provided ad libitum. Various anti-thrombotic agents and peptides of this invention were dissolved in saline (0.9% sodium chloride) prior to use.
The FeCl3-induced venous model of thrombosis in rats was generated as described by Wang and Xu (Wang 2005) with some modifications (Couture 2011). Briefly, rats were anesthetized with a 2.5% isoflurane/oxygen mixture and placed on a heat source (35-37° C.). The vena cava was then exposed via a midline incision and the region between the renal and iliolumbar veins was isolated. […]
Protein content of the thrombus was also measured according to protocol by Wang (Wang 2005). […] Contents of amino acids and small peptides were measured at OD280 with digestion buffer used as a blank.
Statistical analysis was conducted using GraphPad™ Prism (GraphPad Software Inc., San Diego Calif., USA). Data were analyzed using one-way ANOVA with post-hoc Bonferroni correction for multiple comparisons. The relationship between thrombus weight and thrombus volume was determined by linear regression. […]

[2] = test system: fresh blood withdrawn from rats with venous thrombosis; assay: Clotting time (aPTT) of fresh blood withdrawn from treated rats; type: in vivo; details: rat, 0.2 mg/kg bolus + 0.00433 mg/kg/min infusion; 20 minutes after administration versus before
Procedure: FIG. 23 illustrates the clotting times (aPTT) determined for fresh blood withdrawn from rats with venous thrombosis at three time points, the first before drug administration and vessel injury, the second at 20 minutes after FeCl3 application and the third 60 minutes following injection of the respective thrombin inhibitors. Clotting times (aPTT) are shown for different rats administered with each thrombin inhibitor, ZIP4 for MH2-wZIP4, ZIP5 for MH2-wZIP5 and T218 for BRI-T218. Dosage levels for every compound were 0.2 mg/kg for the single-bolus injection and 0.00433 mg/kg/min for the maintenance infusion,
Terminal blood samples were analyzed for aPTT within 15 to 30 minutes of collection using a Coag DX Analyzer with aPTT citrate cartridges (IDEXX Laboratories, Westbrook, Me., USA).

thrombin = thrombin (Homo sapiens, UniProt P00734); assay: Fibrinogen clotting assay (concentration needed to double the clotting time = IC50); type: biochemical; details: IC50 (anti-clotting), T = 37° C.
Procedure: The same enzyme kinetic assays were used to determine the inhibitory activities of MH2 and two MH2-derived peptides, MH2-allGS and MH2-GS (Table 4). Clotting assays were carried out to determine the inhibitory activities of the rest of the MH2 peptides by use of the protocols described previously (DiMaio 1990; Taka 2000; Su 2004). The assay employs bovine plasma fibrinogen dissolved at 0.1% in 50 mM Tris-Cl, 100 mM NaCl, 0.1% PEG-8000 at pH 7.6 (i.e. the clotting buffer). In addition to the use of optical densities or ODs (Gill 1989), concentrations of the peptide stock solutions were ranked (and corrected when necessary) by use of quantitative proton NMR spectroscopy (Cavaluzzi 2002). Each assay mixture contained a certain concentration of the peptide, and the reaction was started by the addition of human thrombin to a final concentration of approximately 0.5 nM. Optical absorbance of the assay mixtures was measured at 420 nm using the Spectramax™ plate reader. The onset clotting time was determined as an intersection of the baseline and the tangent line at point of inflection of the clotting curve. The concentration of an MH2 peptide needed to double the clotting time was defined as IC50 (DiMaio 1990) as illustrated in FIG. 4 and summarized in Table 4. The correlation between IC50 values and linker unfolding is similar to that for the BTI series of inhibitors (Table 3). […] (Table 3).

pooled human plasma [3] = assay: Activated partial thromboplastin time (APTT) clotting assay; type: biochemical; details: 37° C.; concentration for 50% of maximum delay in clotting time; read-out: MTC50 (APTT)
Procedure: (§1) Prothrombin (clotting) time (PT) or activated partial thromboplastin (clotting) time (APTT) assays were carried out at certain concentrations of the thrombin inhibitors of the present invention using pooled human plasma with addition of thromboplastin or activated partial thromboplastin to initiate clotting. The assays employed kits from Biopool International (Ventura, Calif., USA) or from Pacific Haemostasis (Middletown, Va., USA) using the procedures supplied by the manufacturer. Briefly, the stock solution of an inhibitor (with the concentration determined using UV-based OD determination, see Gill 1989) is diluted in a buffer of 20 mM HEPES and 150 mM NaCl at pH 7.4 (HBS) to a final volume of 50 μL, to which is added the reconstituted normal plasma (Product #CMS-176172 from Fisher Scientific) in an equal volume. This solution mixture is equilibrated at 37° C. for 2 minutes before 50 μL of the APTT-10XL solution (CMS-022927) is introduced forcibly to ensure proper mixing. This new mixture was incubated at 37° C. for another 5 minutes, which is followed by the addition of 50 μL of 0.02 M […] (Fisher Scientific CMS-022925) pre-warmed at 37° C. For the prothrombin time (PT) assay, an inhibitor is diluted in HBS to a final volume of 25 μL, to which is added the reconstituted control plasma (Fisher Scientific CMS-176172) in an equal volume. This solution mixture is equilibrated at 37° C. for 5 minutes before addition of 100 μL of the thromboplastin solution (CMS-176099) pre-warmed at 37° C. For APTT assays, inhibitory activities of the peptides are expressed as concentrations needed to achieve 50% of the maximum delay in clotting time (MCT50) as compared to the absence of thrombin inhibitors (Maraganore 1989). For PT assays, inhibitory activities are measured as the concentrations of the peptides that prolong the clotting time by 50% (IC50) of that of the normal control plasma (Maraganore 1990). PT and APTT assays were also carried out using slightly modified experimental procedures. Thus, 50 μL of a control plasma (Pacific Hemostasis) solution was added to 100 μL HBS (20 mM HEPES and 150 mM NaCl at pH 7.4) containing varied concentrations of the peptides of this invention. After incubation at 37° C. for 5 min, the mixture was added to 50 μL of the thromboplastin or activated partial thromboplastin reagent. Clotting of the plasma was monitored by change in absorbance at 420 nm using a SpectraMax™ plate reader.

pooled human plasma [4] = assay: Prothrombin time (PT, thromboplastin) clotting assay; type: biochemical
Procedure: as §1

[5] = estimated (Cochran 2001), cited from earlier work
rat-tail collagen type I = target: T1, rat-tail collagen type I (Rattus norvegicus, UniProt P02454+P02466); assay: Peptide-collagen binding by reduction of collagen fibril alignment (deuterium coupling constant); details: collagen gelation under magnetic field in presence of peptide
T1 construct: purchased BD Bioscience; host or cells: rat tail (tissue-derived)
T1 sequence (P02454 152-1207): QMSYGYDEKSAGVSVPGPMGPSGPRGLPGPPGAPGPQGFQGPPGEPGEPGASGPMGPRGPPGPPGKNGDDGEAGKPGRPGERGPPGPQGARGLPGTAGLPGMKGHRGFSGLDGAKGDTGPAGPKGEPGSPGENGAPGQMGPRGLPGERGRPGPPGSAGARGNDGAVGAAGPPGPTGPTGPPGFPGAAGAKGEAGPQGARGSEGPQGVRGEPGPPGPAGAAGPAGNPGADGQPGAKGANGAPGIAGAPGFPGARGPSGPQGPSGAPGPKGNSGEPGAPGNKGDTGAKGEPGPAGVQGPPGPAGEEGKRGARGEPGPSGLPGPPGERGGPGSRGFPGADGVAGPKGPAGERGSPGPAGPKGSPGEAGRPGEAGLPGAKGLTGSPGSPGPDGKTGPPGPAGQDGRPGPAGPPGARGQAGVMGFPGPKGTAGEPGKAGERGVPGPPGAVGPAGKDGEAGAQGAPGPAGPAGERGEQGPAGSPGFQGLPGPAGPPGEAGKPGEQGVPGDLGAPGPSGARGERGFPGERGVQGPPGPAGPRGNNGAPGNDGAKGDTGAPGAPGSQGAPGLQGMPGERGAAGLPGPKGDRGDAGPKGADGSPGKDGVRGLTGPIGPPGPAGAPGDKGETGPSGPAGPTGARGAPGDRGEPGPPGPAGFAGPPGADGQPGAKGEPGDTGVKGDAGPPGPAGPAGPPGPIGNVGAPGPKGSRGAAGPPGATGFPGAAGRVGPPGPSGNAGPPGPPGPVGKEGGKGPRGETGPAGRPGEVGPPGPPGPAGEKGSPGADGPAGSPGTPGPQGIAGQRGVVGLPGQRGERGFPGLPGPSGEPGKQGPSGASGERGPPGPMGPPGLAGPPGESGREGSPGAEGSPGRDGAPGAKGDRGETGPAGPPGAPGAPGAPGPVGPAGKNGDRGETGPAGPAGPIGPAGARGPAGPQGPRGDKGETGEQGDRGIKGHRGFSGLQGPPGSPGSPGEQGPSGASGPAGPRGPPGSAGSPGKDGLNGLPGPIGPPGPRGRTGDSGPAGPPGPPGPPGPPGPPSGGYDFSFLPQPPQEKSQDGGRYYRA
T1 sequence (P02466 86-1125): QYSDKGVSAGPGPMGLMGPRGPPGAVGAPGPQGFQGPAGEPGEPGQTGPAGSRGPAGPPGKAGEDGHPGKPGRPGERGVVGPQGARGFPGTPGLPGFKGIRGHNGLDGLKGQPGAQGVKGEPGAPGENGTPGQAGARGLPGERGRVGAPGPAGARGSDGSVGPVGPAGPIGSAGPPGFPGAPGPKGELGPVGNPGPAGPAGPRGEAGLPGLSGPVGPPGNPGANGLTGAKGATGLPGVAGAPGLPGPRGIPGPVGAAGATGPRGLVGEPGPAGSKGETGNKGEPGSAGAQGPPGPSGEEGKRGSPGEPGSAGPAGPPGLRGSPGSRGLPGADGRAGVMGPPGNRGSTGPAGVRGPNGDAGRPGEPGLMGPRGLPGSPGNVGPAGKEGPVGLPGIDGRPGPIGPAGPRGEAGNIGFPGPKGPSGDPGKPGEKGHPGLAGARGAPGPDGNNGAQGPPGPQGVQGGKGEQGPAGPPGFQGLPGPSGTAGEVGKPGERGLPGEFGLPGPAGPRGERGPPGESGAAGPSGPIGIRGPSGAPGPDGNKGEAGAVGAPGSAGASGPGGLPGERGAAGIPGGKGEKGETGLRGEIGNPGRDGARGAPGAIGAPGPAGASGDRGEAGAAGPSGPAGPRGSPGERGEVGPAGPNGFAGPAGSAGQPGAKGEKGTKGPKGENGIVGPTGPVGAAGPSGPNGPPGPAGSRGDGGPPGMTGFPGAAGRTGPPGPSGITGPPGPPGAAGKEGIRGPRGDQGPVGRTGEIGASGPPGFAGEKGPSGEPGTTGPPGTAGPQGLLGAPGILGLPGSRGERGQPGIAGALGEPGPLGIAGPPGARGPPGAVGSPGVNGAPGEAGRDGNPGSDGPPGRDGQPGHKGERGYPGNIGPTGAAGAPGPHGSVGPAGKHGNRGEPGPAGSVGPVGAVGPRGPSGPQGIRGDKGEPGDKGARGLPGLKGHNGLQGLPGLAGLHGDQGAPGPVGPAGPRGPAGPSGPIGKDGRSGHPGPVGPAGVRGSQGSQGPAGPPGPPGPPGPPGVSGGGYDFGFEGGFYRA
Source text: High-resolution proton NMR spectroscopy is used to illustrate the behavior of the linker peptides […] (SEQ ID NO: 2 or gb1), […] (SEQ ID NO: 3 or trpzip6), […] (SEQ ID NO: 4 or trpzip5) and […] (SEQ ID NO: 5 or trpzip4) in aqueous solutions. The peptides were synthesized using standard Fmoc chemistry and purified by reverse-phase HPLC. Their identity was confirmed by mass-spectroscopy and NMR spectroscopy. For NMR studies, a volume of (400-X) μL of a peptide dissolved in pure water was mixed with 50 μL of a 10×PBS (phosphate-buffered saline) supplemented by sodium phosphate to a final concentration of 50 mM and with 50 μL of deuterated water (D2O) to form the reference sample (where X=0) and with a certain volume (X μL) of rat-tail collagen type I (at 3.6 to 4 mg/ml in 0.02 N acetic acid from BD Bioscience), (where X is adjusted to achieve the desired final concentration of collagen), with 50 μL of the 10× modified PBS and with 50 μL of deuterated water (D2O) to form the peptide-collagen complex. The pH value of the reference peptide samples was adjusted to match the pH of the final peptide-collagen complex in order to facilitate NMR spectral comparison.
The peptide-collagen solutions were subjected to gelation under magnetic field guidance (see Example 7) followed by the measurement of fibril alignment (Ma 2008) as a semi-quantitative indication of peptide-collagen binding. […]

CC[C@H](C)[C@H](N)C(=O)N[C@@H](CCCNC(=N)N)C(=O)N[C@@H](Cc1ccccc1)C(=O)N[C@H](C(=O)N[C@@H](CC(=O)O)C(=O)NCC(=O)N[C@@H](CCC(=O)O)C(=O)N[C@@H](Cc1c[nH]c2ccccc12)C(=O)N[C@H](C(=O)N[C@@H](Cc1ccc(O)cc1)C(=O)N[C@@H](CC(=O)O)C(=O)N[C@@H](CC(=O)O)C(=O)N[C@@H](C)C(=O)N[C@H](C(=O)N[C@@H](CCCCN)C(=O)N[C@H](C(=O)N[C@@H](Cc1ccccc1)C(=O)N[C@H](C(=O)N[C@@H](Cc1c[nH]c2ccccc12)C(=O)N[C@H](C(=O)N[C@@H](CCC(=O)O)C(=O)NCC(=O)N[C@@H](CC(=O)O)C(=O)N[C@@H](Cc1ccccc1)C(=O)N[C@@H](CCC(=O)O)C(=O)N[C@@H](CCC(=O)O)C(=O)N[C@H](C(=O)N1CCC[C@H]1C(=O)N[C@@H](CCC(=O)O)C(=O)N[C@@H](CCC(=O)O)C(=O)N[C@@H](Cc1ccc(O)cc1)C(=O)N[C@@H](CC(C)C)C(=O)N[C@@H](CCC(N)=O)C(=O)O)[C@@H](C)CC)[C@@H](C)O)[C@@H](C)O)[C@@H](C)O)[C@@H](C)O)[C@@H](C)O)[C@@H](C)O [MH2-wZIP5]
reduction of thrombus weight, venous model [1]: comparable to MH2-wZIP4 | clotting time (aPTT), systemic anticoagulant effect [2]: only a slight prolongation of the clotting time (aPTT) | IC50 (thrombin): 107 nM | EC50 (pooled human plasma [3]): 2000 nM | concentrations required in PT-APTT curves relative to MH2-GS (pooled human plasma [4]): about 2.5 times | IC50 (pooled human plasma [4]; 37° C., concentration that prolongs clotting time by 50%): < 300 nM

GEWTYDDATKTFTVTE (not fully specified (C-terminus)) [gb1]
population of unfolded species, non-zero ΔCp taken into account ([5]; 21° C.): 0.7 | population of unfolded species, non-zero ΔCp taken into account ([5]; 37° C.): 0.85 | reduction of deuterium coupling constant (degree of collagen fibril alignment) (rat-tail collagen type I): not significantly affected
